{"source": "patent US9363998B2", "about": "“Pesticidal composition and its use” (SUMITOMO CHEMICAL COMPANY, LIMITED, priority 2010, dated 2016)", "tested_on": "Rhizoctonia solani", "assay": "Soybean seed treatment test in soil contaminated by Rhizoctonia solani (disease control efficacy)", "type": "in vivo, Rhizoctonia solani on soybean (variety: Natto shoryu)", "conditions": "carboxamide compound alone 0.2 g/100 kg of seeds, no thiodicarb, soybean cultivated 20 days in soil contaminated by Rhizoctonia solani, efficacy vs non-treated plot", "method": "A cyclohexanone solution (100 microL) containing prescribed amount (weight) of a test compound was applied on seeds of soybean (variety:Natto shoryu) (10 g) by using a rotary apparatus for seed treatment (Seed dresser, manufactured by Hans-Ulrich Hege GmbH).\nOne day after the application, plastic pot was filled with soil contaminated by Rhizoctonia solani, and the seeds treated with the test compounds were seeded in the soil and cultivated in a glass-greenhouse for 20 days (hereinafter referred to as “treated plot”).\nThereafter, the presence of disease caused by Rhizoctonia solani in the young plants which germinated from each seed was observed and disease severity was calculated according to the following calculation formula (1).\nOn the other hand, seeds of soybean which were not treated as above were cultivated in the same way as above (hereinafter referred to as “non-treated plot”) and the disease severity in “non-treated plot” was calculated in the same way as the above “treated plot”. On the basis of the above disease severity in “treated plot” and “non-treated plot”, efficacy in “treated plot” was evaluated according to the following calculation formula (2). […]", "data": [{"smiles": "CC1CC(C)(C)c2cccc(NC(=O)c3cn(C)nc3C(F)F)c21", "note": "(stereo not shown) [carboxamide compound (1)]", "values": [{"measurement": "efficacy (%)", "result": 47.4, "unit": "%"}]}]}
